# Experimental data: publication PMC6540285, “Evaluation of Protein Kinase Inhibitors with PLK4 Cross-Over Potential in a Pre-Clinical Model of Cancer” (International Journal of Molecular Sciences, 2019)
# pIC50: −log10 of the molar value.
# What was measured:
# RT and MB cells = experiment: Clonogenic colony formation assay; format: cell-based; conditions: 1µM
# Experimental: All cell lines were seeded at 200 cells per well in six-well plates and incubated overnight. After 24 h, the treatment medium was added and changed once a week. Cells were treated with 0.01, 0.05, 0.1, 0.2, 0.5, 1, 5, and 10 µM of PLK4i and 0.1% DMSO as control. After 14 days, the cells were washed twice with 1x PBS, fixed with formalin, and stained with Cresyl violet (ACROS Organics, Pittsburgh, PA, USA). Colonies were counted using the ImageJ software (www.imagej.nih.gov, accessed on April 21, 2017).
# AKT1 (PKB alpha) = AKT1 (PKB alpha) (Homo sapiens, UniProt P31749); experiment: SelectScreen kinase profiling, ZLYTE; format: biochemical
# ALK = ALK (Homo sapiens, UniProt Q9UM73); experiment: SelectScreen kinase profiling, ZLYTE; format: biochemical
# AMPK A1/B1/G1 = AMPK A1/B1/G1 (Homo sapiens, UniProt Q13131); experiment: SelectScreen kinase profiling, ZLYTE; format: biochemical; conditions: AMPK A1/B1/G1, 10 µM
# AMPK A1/B1/G1, sequence (Q13131 whole entry): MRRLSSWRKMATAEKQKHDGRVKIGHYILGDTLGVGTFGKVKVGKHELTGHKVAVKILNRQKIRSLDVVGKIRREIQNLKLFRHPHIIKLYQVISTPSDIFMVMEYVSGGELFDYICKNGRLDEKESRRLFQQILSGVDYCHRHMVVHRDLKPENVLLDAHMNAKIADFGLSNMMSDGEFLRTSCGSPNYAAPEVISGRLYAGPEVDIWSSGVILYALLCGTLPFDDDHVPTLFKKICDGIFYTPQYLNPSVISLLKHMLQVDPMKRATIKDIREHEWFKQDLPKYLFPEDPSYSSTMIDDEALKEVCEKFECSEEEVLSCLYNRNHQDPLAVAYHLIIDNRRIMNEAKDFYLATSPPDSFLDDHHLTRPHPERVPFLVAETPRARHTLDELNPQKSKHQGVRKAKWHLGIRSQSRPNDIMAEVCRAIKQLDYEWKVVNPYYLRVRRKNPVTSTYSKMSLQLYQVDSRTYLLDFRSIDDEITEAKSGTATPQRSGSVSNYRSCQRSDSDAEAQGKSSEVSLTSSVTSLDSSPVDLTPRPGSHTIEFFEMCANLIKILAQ
# AMPK A1/B1/G1, sequence (Q9Y478 whole entry partner): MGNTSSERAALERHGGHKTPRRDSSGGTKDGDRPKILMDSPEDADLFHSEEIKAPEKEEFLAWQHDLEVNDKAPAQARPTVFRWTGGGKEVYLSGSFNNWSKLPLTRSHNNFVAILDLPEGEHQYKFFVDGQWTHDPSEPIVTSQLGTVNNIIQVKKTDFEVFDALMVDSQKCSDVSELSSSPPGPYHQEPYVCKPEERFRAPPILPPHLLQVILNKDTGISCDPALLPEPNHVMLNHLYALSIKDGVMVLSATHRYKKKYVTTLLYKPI
# AMPK A1/B1/G1, sequence (P54619 whole entry partner): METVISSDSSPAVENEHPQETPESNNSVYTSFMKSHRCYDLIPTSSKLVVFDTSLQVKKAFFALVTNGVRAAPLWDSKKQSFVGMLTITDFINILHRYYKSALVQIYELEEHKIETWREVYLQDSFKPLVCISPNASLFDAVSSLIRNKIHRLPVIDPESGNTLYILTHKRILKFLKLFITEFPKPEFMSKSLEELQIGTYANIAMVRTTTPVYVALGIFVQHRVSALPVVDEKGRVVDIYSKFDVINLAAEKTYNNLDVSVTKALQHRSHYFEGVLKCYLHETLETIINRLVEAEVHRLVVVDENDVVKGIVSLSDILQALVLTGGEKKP
# AXL R499C = AXL R499C (Homo sapiens, UniProt P30530, R499C); experiment: SelectScreen kinase profiling, LanthaScreen binding
# CSNK1E (CK1 epsilon) = CSNK1E (CK1 epsilon) (Homo sapiens, UniProt P49674); experiment: SelectScreen kinase profiling, ZLYTE; format: biochemical
# Excerpt: (§1) Kinase Technology % Inhibition Avg Kinase Technology % Inhibition Avg
# (§2) STK23 (MSSK1) ZLYTE 59 TGFBR1 (ALK5) LanthaScreen 85
# (§3) STK24 (MST3) ZLYTE 85 TGFBR2 LanthaScreen 77
# (§4) STK25 (YSK1) ZLYTE 45 TLK1 LanthaScreen 4
# (§5) STK3 (MST2) ZLYTE 77 TLK2 LanthaScreen 33
# (§6) STK32B (YANK2) LanthaScreen 61 TNIK LanthaScreen 15
# (§7) STK32C (YANK3) LanthaScreen 62 TNK1 ZLYTE 94
# (§8) STK33 LanthaScreen 81 TNK2 (ACK) LanthaScreen 71
# (§9) STK38 (NDR) LanthaScreen 85 TTK LanthaScreen 54
# (§10) STK38L (NDR2) LanthaScreen 59 TXK ZLYTE 94
# (§11) STK39 (STLK3) LanthaScreen 38 TYK2 ZLYTE 99
# (§12) STK4 (MST1) ZLYTE 93 TYRO3 (RSE) ZLYTE 92
# (§13) SYK ZLYTE 98 ULK1 LanthaScreen 80
# (§14) TAOK1 LanthaScreen 82 ULK2 LanthaScreen 56
# (§15) TAOK2 (TAO1) ZLYTE 87 ULK3 LanthaScreen 5
# (§16) TAOK3 (JIK) LanthaScreen 25 VRK2 LanthaScreen 32
# (§17) TBK1 ZLYTE 99 WEE1 LanthaScreen 75
# (§18) TEC LanthaScreen -9 WNK1 LanthaScreen 2
# (§19) TEK (Tie2) ZLYTE 99 WNK2 LanthaScreen 1
# (§20) TEK (TIE2) R849W LanthaScreen -5 WNK3 LanthaScreen 7
# (§21) TEK (TIE2) Y897S ZLYTE 80 ZAK LanthaScreen 77
# (§22) TESK1 LanthaScreen 37 ZAP70 ZLYTE 24
# (§23) cleavage (Thermo Fisher Scientific, USA)
# DYRK4 = DYRK4 (Homo sapiens, UniProt Q9NR20); experiment: SelectScreen kinase profiling, ZLYTE; format: biochemical; conditions: DYRK4, 10 µM
# Excerpt: as §1, §2, §3, §4, §5, §6, §7, §8, §9, §10, §11, §12, §13, §14, §15, §16, §17, §18, §19, §20, §21, §22, §23
# INSR = INSR (Homo sapiens, UniProt P06213); experiment: SelectScreen kinase profiling, ZLYTE; format: biochemical
# Excerpt: as §1, §2, §3, §4, §5, §6, §7, §8, §9, §10, §11, §12, §13, §14, §15, §16, §17, §18, §19, §20, §21, §22, §23
# INSRR (IRR) = INSRR (IRR) (Homo sapiens, UniProt P14616); experiment: SelectScreen kinase profiling, ZLYTE; format: biochemical
# INSRR (IRR), sequence (P14616 27-1297): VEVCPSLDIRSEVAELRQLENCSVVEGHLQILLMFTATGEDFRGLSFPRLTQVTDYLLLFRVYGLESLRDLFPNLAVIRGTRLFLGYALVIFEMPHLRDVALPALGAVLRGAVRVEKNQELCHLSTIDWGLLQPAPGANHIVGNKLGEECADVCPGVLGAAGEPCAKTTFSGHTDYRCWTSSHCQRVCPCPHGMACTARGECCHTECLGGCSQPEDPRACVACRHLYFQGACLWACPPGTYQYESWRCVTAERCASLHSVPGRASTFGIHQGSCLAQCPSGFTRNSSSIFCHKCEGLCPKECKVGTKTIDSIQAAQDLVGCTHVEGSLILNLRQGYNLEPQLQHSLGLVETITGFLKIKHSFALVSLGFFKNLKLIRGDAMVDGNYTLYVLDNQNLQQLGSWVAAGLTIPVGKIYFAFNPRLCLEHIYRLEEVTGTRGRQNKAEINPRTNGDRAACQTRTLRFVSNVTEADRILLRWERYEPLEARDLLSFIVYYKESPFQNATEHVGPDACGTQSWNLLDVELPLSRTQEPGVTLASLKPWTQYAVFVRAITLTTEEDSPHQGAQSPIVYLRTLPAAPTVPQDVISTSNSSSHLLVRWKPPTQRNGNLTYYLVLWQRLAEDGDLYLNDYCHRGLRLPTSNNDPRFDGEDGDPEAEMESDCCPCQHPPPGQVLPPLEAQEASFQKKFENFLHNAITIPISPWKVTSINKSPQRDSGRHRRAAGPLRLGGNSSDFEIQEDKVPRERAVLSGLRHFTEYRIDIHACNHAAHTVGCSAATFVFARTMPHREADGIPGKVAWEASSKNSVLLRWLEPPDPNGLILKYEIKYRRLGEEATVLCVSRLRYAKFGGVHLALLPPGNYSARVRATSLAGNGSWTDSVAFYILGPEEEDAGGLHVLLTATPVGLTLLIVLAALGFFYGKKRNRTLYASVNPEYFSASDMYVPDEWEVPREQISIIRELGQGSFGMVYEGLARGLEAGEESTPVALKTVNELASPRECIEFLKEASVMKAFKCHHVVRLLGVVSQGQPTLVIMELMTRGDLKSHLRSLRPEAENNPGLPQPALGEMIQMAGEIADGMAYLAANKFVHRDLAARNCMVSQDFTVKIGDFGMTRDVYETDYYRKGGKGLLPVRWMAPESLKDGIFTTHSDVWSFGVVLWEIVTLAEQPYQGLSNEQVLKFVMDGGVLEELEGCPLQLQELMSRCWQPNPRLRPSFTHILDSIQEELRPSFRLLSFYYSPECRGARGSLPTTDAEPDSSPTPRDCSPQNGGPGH
# Excerpt: as §1, §2, §3, §4, §5, §6, §7, §8, §9, §10, §11, §12, §13, §14, §15, §16, §17, §18, §19, §20, §21, §22, §23
# KSR2 = KSR2 (Homo sapiens, UniProt Q6VAB6); experiment: SelectScreen kinase profiling, ZLYTE; format: biochemical; conditions: KSR2, 10 µM
# Excerpt: as §1, §2, §3, §4, §5, §6, §7, §8, §9, §10, §11, §12, §13, §14, §15, §16, §17, §18, §19, §20, §21, §22, §23
# MAPKAPK3 = MAPKAPK3 (Homo sapiens, UniProt Q16644); experiment: SelectScreen kinase profiling, ZLYTE; format: biochemical; conditions: MAPKAPK3, 10 µM
# Excerpt: as §1, §2, §3, §4, §5, §6, §7, §8, §9, §10, §11, §12, §13, §14, §15, §16, §17, §18, §19, §20, §21, §22, §23
# MST1R (RON) = MST1R (RON) (Homo sapiens, UniProt Q04912); experiment: SelectScreen kinase profiling, ZLYTE; format: biochemical
# MST1R (RON), sequence (Q04912 25-1400): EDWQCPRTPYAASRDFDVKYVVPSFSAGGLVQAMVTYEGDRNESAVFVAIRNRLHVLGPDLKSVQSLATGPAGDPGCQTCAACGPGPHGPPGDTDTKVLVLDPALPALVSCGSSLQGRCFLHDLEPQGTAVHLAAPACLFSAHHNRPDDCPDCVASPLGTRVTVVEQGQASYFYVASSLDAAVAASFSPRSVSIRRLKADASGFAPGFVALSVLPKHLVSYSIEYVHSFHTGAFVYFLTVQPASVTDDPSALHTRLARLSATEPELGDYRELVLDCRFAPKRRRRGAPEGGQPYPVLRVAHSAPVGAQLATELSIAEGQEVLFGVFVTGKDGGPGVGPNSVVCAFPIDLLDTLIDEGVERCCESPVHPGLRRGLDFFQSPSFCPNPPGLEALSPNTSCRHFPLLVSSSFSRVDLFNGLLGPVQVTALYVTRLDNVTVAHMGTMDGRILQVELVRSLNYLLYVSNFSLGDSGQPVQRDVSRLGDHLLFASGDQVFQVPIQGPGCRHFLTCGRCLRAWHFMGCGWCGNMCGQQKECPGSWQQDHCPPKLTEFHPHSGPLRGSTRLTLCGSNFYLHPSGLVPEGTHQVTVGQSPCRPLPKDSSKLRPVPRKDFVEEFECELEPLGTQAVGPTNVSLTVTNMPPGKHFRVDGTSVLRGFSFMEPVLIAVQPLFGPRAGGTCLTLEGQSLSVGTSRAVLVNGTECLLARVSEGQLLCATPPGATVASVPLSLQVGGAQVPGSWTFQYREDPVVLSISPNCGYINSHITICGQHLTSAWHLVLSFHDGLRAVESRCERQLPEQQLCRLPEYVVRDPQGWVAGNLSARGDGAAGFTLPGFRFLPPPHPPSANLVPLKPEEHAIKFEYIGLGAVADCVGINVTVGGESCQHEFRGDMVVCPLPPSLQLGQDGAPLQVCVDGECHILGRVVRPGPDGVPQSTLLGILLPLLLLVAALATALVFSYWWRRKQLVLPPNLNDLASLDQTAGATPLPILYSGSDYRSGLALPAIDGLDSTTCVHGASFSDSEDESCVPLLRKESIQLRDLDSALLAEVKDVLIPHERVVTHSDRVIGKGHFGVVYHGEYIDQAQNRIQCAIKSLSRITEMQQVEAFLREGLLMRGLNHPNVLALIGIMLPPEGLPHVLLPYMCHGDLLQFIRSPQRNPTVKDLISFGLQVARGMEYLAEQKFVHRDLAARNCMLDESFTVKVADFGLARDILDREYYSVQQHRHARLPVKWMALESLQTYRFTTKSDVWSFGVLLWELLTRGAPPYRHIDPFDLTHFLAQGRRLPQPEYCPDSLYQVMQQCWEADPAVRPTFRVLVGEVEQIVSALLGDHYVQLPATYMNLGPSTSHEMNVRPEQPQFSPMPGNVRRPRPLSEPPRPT
# Excerpt: as §1, §2, §3, §4, §5, §6, §7, §8, §9, §10, §11, §12, §13, §14, §15, §16, §17, §18, §19, §20, §21, §22, §23
# NEK6 = NEK6 (Homo sapiens, UniProt Q9HC98); experiment: SelectScreen kinase profiling, ZLYTE; format: biochemical; conditions: NEK6, 10 µM
# NEK6, sequence (Q9HC98 whole entry): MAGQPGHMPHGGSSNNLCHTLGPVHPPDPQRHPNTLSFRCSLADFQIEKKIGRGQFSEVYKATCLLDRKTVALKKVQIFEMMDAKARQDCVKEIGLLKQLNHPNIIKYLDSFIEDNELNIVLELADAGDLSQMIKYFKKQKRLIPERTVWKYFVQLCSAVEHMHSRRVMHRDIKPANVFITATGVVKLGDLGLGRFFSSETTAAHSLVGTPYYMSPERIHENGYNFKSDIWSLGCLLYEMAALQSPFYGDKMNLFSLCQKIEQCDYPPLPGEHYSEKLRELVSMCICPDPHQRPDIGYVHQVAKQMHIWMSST
# Excerpt: as §1, §2, §3, §4, §5, §6, §7, §8, §9, §10, §11, §12, §13, §14, §15, §16, §17, §18, §19, §20, §21, §22, §23
# PAK7 (KIAA1264) = PAK7 (KIAA1264) (Homo sapiens, UniProt Q9P286); experiment: SelectScreen kinase profiling, ZLYTE; format: biochemical
# Excerpt: as §1, §2, §3, §4, §5, §6, §7, §8, §9, §10, §11, §12, §13, §14, §15, §16, §17, §18, §19, §20, §21, §22, §23
# PKN1 (PRK1) = PKN1 (PRK1) (Homo sapiens, UniProt Q16512); experiment: SelectScreen kinase profiling, ZLYTE; format: biochemical
# Excerpt: as §1, §2, §3, §4, §5, §6, §7, §8, §9, §10, §11, §12, §13, §14, §15, §16, §17, §18, §19, §20, §21, §22, §23
# PTK2 (FAK) = PTK2 (FAK) (Homo sapiens, UniProt Q05397); experiment: SelectScreen kinase profiling, ZLYTE; format: biochemical
# Excerpt: as §1, §2, §3, §4, §5, §6, §7, §8, §9, §10, §11, §12, §13, §14, §15, §16, §17, §18, §19, §20, §21, §22, §23
# RPS6KA3 (RSK2) = RPS6KA3 (RSK2) (Homo sapiens, UniProt P51812); experiment: SelectScreen kinase profiling, ZLYTE; format: biochemical
# Excerpt: as §1, §2, §3, §4, §5, §6, §7, §8, §9, §10, §11, §12, §13, §14, §15, §16, §17, §18, §19, §20, §21, §22, §23
# STK22D (TSSK1) = STK22D (TSSK1) (Homo sapiens, UniProt Q9BXA7); experiment: SelectScreen kinase profiling, ZLYTE; format: biochemical
# Excerpt: as §1, §2, §3, §4, §5, §6, §7, §8, §9, §10, §11, §12, §13, §14, §15, §16, §17, §18, §19, §20, §21, §22, §23
# P450 2C19 = P450 2C19 (Homo sapiens, UniProt P33261)
# FGFR1 V561M = FGFR1 V561M (Homo sapiens, UniProt P11362, V561M); experiment: SelectScreen kinase profiling, LanthaScreen binding
# KIT T670E = KIT T670E (Homo sapiens, UniProt P10721, T670E); experiment: as above
# KIT T670E, sequence (P10721 26-976 T670E): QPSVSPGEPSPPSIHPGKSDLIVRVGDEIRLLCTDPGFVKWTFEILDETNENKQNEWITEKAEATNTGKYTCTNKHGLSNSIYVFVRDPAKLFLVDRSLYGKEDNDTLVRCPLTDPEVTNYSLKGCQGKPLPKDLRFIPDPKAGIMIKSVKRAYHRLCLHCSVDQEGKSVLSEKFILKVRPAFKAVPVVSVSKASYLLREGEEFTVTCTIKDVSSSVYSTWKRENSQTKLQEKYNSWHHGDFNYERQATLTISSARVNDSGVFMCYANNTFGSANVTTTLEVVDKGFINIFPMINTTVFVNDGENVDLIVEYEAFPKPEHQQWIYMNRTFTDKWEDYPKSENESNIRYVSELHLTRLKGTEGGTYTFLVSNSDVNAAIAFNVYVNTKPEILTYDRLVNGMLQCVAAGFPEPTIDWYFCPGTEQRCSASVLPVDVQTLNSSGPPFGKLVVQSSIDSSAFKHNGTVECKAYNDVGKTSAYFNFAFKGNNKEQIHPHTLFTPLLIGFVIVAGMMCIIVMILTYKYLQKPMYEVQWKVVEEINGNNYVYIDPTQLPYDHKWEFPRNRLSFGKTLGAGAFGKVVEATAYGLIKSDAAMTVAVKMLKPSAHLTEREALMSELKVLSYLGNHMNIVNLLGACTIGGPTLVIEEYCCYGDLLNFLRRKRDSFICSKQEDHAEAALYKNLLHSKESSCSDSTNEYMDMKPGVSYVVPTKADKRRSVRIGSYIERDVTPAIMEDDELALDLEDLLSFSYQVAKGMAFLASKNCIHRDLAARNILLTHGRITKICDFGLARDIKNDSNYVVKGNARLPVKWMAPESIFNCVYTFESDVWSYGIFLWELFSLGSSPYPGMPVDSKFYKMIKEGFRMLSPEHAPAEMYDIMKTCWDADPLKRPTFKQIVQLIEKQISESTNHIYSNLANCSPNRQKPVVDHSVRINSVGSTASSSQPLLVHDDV
# [1] = target: MAP2K1 (MEK1) S218D S222D (Homo sapiens, UniProt Q02750, S218D/S222D); experiment: as above
# MAPKAPK5 (PRAK) = MAPKAPK5 (PRAK) (Homo sapiens, UniProt Q8IW41); experiment: SelectScreen kinase profiling, ZLYTE; format: biochemical
# NEK2 = NEK2 (Homo sapiens, UniProt P51955); experiment: SelectScreen kinase profiling, ZLYTE; format: biochemical; conditions: NEK2, 10 µM
# PIM3 = PIM3 (Homo sapiens, UniProt Q86V86); experiment: SelectScreen kinase profiling, ZLYTE; format: biochemical; conditions: PIM3, 10 µM
# PRKG1 = PRKG1 (Homo sapiens, UniProt Q13976); experiment: SelectScreen kinase profiling, ZLYTE; format: biochemical; conditions: PRKG1, 10 µM
# RPS6KA4 (MSK2) = RPS6KA4 (MSK2) (Homo sapiens, UniProt O75676); experiment: SelectScreen kinase profiling, ZLYTE; format: biochemical
# STK16 (PKL12) = STK16 (PKL12) (Homo sapiens, UniProt O75716); experiment: SelectScreen kinase profiling, LanthaScreen binding
smiles,measurement,setting,value
O=C(c1ccc(/C=C/c2n[nH]c3ccccc23)cc1)N1CCNCC1 [KW-2449],colony formation,RT and MB cells,complete inhibition of colony formation in all cell lines except the MB cell line DAOY
same,inhibition at 10 µM,AKT1 (PKB alpha),24%
same,inhibition at 10 µM,ALK,101%
same,inhibition at 10 µM,AMPK A1/B1/G1,97%
same,inhibition at 10 µM,AXL R499C,45%
same,inhibition at 10 µM,CSNK1E (CK1 epsilon),67%
same,inhibition at 10 µM,DYRK4,16%
same,inhibition at 10 µM,INSR,96%
same,inhibition at 10 µM,INSRR (IRR),96%
same,inhibition at 10 µM,KSR2,5%
same,inhibition at 10 µM,MAPKAPK3,4%
same,inhibition at 10 µM,MST1R (RON),97%
same,inhibition at 10 µM,NEK6,10%
same,inhibition at 10 µM,PAK7 (KIAA1264),98%
same,inhibition at 10 µM,PKN1 (PRK1),72%
same,inhibition at 10 µM,PTK2 (FAK),95%
same,inhibition at 10 µM,RPS6KA3 (RSK2),95%
same,inhibition at 10 µM,STK22D (TSSK1),99%
same,pIC50,P450 2C19,5.03
same,inhibition at 10 µM,FGFR1 V561M,30%
same,inhibition at 10 µM,KIT T670E,89%
same,inhibition at 10 µM,[1],66%
same,inhibition at 10 µM,MAPKAPK5 (PRAK),87%
same,inhibition at 10 µM,NEK2,47%
same,inhibition at 10 µM,PIM3,2%
same,inhibition at 10 µM,PRKG1,77%
same,inhibition at 10 µM,RPS6KA4 (MSK2),75%
same,inhibition at 10 µM,STK16 (PKL12),83%
